Laboratory results published in patent US20250215403A1, “Compositions and Methods for Cardiac Tissue Regeneration” (Temple University - Of The Commonwealth System Of Higher …, priority 2022, published 2025).

Legend:
cardiomyocytes (CM) [1] = test: Mouse MI model: immunostaining of heart sections for CM cell cycle markers (ki67, pH3, BrdU, Aurora B); assay type: in vivo; conditions: SSP gene modRNA delivery; 7 days post-MI
Method: (§1) All surgical and experimental procedures with mice were performed in accordance with protocols approved by Institutional Animal Care and Use Committees at Temple University Animal Care and Use Committee (IACUC). C57BL6 or CM-specific MADM mice (8-12-weeks-old) were anesthetized with isoflurane. MI was induced by permanent ligation of the LAD, as previously described (Garikipati, V. N. S., et al., 2019, Nature Communications, 10:4317). Briefly, the left thoracic region was shaved and sterilized. After intubation, the heart was exposed through a left thoracotomy. A suture was placed to ligate the LAD. The thoracotomy and skin were sutured closed in layers. Excess air was removed from the thoracic cavity, and the mouse was removed from ventilation when normal breathing was established. In order to determine the effect of modRNA on cardiovascular outcome after MI, modRNAs (100 μg/heart) were injected into the infarct zone immediately after LAD ligation (Magadum A., et al., Circulation. 2020, 141 (15): 1249-1265). For examination of heart histology, hearts were collected at the end of each study, quickly washed in PBS, weighed, and fixed in 4% PFA for cryo-sectioning and immunostainings. In all experiments, the surgeon was blinded to the treatment group. For assessment of heart histology, hearts were collected at the end of each study. The hearts were excised, briefly washed in PBS, perfused with perfusion buffer, weighed and fixed in 4% PFA at 4° C. overnight. The heart blocks were transverse sectioned at 6-8 μm using cryostat. The heart sections were further processed for histological evaluation using immunostaining (see below) or histological scar staining using Masson's trichrome staining kit (Sigma) according to standard procedures. Measuring the ratio of heart weight to body weight was done using a scale. This ratio was calculated as the heart tissue weight relative to the mouse total body weight in grams (g).
Mice were injected with AAV9-GFP or AAV9-YAP1-shRNA (GeneCopoeia) through retro-orbital injection 7 days before LAD. A total of 5×10^11 viral genomes (50 μl total volume delivered) was injected per mouse. The level of YAP1 inhibition was determined at the mRNA level by qPCR 14 days post injection.
Mice hearts were harvested, weighed, and fixed in 4% PFA/PBS overnight on shaker and then washed with PBS for 1 hour and incubated in 30% sucrose/PBS at 4° C. for 12-18 hours. Hearts were then fixed in OCT and frozen at −80° C. (Magadum A., et al., Circulation. 2020, 141 (15): 1249-1265). Transverse heart sections (6-8 μm) were made using a cryostat. Frozen sections were rehydrated in PBS for 5-10 min followed by permeabilization with PBS with 0.1% Triton™ X100 (PBST) for 7-8 min. Heart sections were then treated with 3% H2O2 for 5 min and washed (3×5 min) with PBST. The samples were then blocked with PBS+10% Donkey normal serum+0.1% Triton™ X100 (PBSST) for 1 hour at room temperature. Primary antibodies (see complete list of primary antibodies used for this Example in Table 2 below) diluted in PBST were added and incubated overnight at 4° C. Slides were washed with PBST (3×5 min) followed by incubation with a secondary antibody (Invitrogen, 1:200) diluted in PBST for 90-120 min at room temperature. The samples were further washed with PBST (3×5 min) and stained with DAPI or Hoechst 33342 (1 μg/ml) diluted in PBST for 7 min. After being washed with PBST (3×7 min) and tap water (1×5 min) slides were mounted with mounting medium (VECTASHIELD®) for imaging (Magadum A., et al., Circulation. 2020, 141 (15): 1249-1265). Stained slides were stored at 4° C. All staining was performed on 4-8 hearts/group, with 2-3 sections/heart. For immunostaining with wheat germ agglutinin (WGA) for CM size quantification, images were captured at 40× magnification, and ImageJ was used to determine the area of each cell. […]

cardiomyocytes (CM) [2] = test: Mouse MI model: TUNEL staining of CM apoptosis; assay type: in vivo; conditions: SSP gene modRNA delivery; 7 days post-MI
Method: as §1
Mice hearts were harvested, weighed, and fixed in 4% PFA/PBS overnight on shaker and then washed with PBS for 1 hour and incubated in 30% sucrose/PBS at 4° C. for 12-18 hours. Hearts were then fixed in OCT and frozen at −80° C. (Magadum A., et al., Circulation. 2020, 141 (15): 1249-1265). Transverse heart sections (6-8 μm) were made using a cryostat. […] For immunostaining with wheat germ agglutinin (WGA) for CM size quantification, images were captured at 40× magnification, and ImageJ was used to determine the area of each cell. Quantitative analyses involved counting of multiple fields from 5-8 mouse hearts per group, and 3-4 sections/heart (˜50 cells per field assessed, for a total ˜250 cells per sample). […] BrdU positive CMs were counted in multiple fields from three independent samples per group and 3 sections/heart. […]

## PHGDH: modRNA encoding phosphoglycerate dehydrogenase (ORF SEQ ID NO: 6)
Cardiomyocytes (CM) [1]
  CM cell cycle (pH3+ CMs): partially induced
Cardiomyocytes (CM) [2]
  CM apoptosis (TUNEL+ CMs): inhibited

B1: PSPH: modRNA encoding phosphoserine phosphatase (ORF SEQ ID NO: 5) (nucleic acid)
DNA: ATGGTCTCCCACTCAGAGCTGAGGAAGCTCTTCTGTTCAGCGGATGCAGTGTGCTTTGATGTTGATAGCACCGTCATCAGAGAAGAAGGAATCGATGAGCTGGCCAAATTCTGTGGTGTGGAGGCCGCAGTGTCTGAAATGACACGGAGAGCCATGGGAGGAGCATTGCCTTTTAAAGACGCGCTCACTCAGCGCCTGGCACTGATCCAGCCCTCCAGGGATCAAGTCCAGAGGCTCCTAGCTGAGCACCCGCCACATCTGACTCCTGGCATAAGGGAGCTGGTAAGCCGCCTCCAGGAGCGTAATGTCCAGGTGTTCCTCATCTCTGGTGGCTTTCGGAGCATTGTGGAGCACGTTGCTGCAAAGCTCAATATCCCAACAACCAATGTGTTTGCCAATAGGCTGAAGTTCTACTTTAATGGTGAGTACGCAGGTTTTGATGAGATGCAGCCGACAGCCGAGTCGGGTGGGAAAGGAAAGGTTATTCGGTTTTTAAAGGAAAAATTTCACTTTAAGAAAATAATCATGATTGGAGATGGAGCTACGGACATGGAAGCCTGTCCTCCTGCTGATGCTTTCATTGGCTTTGGAGGCAATGTGATCAGGCAGCAGGTTAAGGACAACGCCAAGTGGTACATCACTGACTTCGTGGAGCTGCTGGGAGAACTGGAGGAGTGA
modifications: modRNA
Cardiomyocytes (CM) [1]
  CM cell cycle (pH3+ CMs): partially induced
Cardiomyocytes (CM) [2]
  CM apoptosis (TUNEL+ CMs): inhibited
